# Measured values reported in ChEMBL document CHEMBL1201862, “PubChem BioAssay data set” (2004).
# “And” between values parts separate entries of the source, which are not always exact repeats. Equal values may be shown once. The source made the active and inactive calls.
# Columns and labels:
# [1] = biological target: Scavenger receptor class B member 1 (Mus musculus, UniProt Q61009); assay: inhibitors of SR-BI mediated HDL lipid uptake, dose response, ldlA[mSR-BI] cells, fluorescence, cherry pick (AID 493194); assay type: functional, cell-based;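 note: cellular uptake of fluorescent DiI-labeled HDL measured as cell fluorescence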
# [2] = biological target: T1, Voltage-gated N-type calcium channel alpha-1B subunit/Amyloid beta A4 precursor protein-binding family A member 1 (Homo sapiens, UniProt Q00975+Q02410); assay: disruptors of Mint-PDZ/N-type channel peptide interaction – biochemical, HTRF, SAR follow-up (AID 2489); assay type: functional
# [3] = biological target: T1, Voltage-gated N-type calcium channel alpha-1B subunit/Amyloid beta A4 precursor protein-binding family A member 1; assay: disruptors of Mint-PDZ/N-type channel peptide interaction – biochemical, HTRF, set 2, SAR follow-up (AID 434980); assay type: functional
# [4] = inhibition of K1F phage lysis, E. coli UTI89, bacterial capsule biogenesis inhibitors, alamar blue (AID 488966); assay type: functional
# Salmon testes DNA = assay: DNA intercalators displacing acridine orange, dose response, artefact control for KSHV LANA DNA-binding inhibitor project, biochemical, fluorescence polarization, cherry-picked samples, set 2 (AID 504727); design: species or system Salmonidae
# cells = assay type: functional
# [5] = Luminescence Cell-Based Dose Response HTS to Identify Inhibitors of 5'UTR Stem-Loop Driven Prion Protein mRNA Translation in H4 Neuroglioblastoma Cells. [Related pubchem assays: 1827 (Project Summary), 1813 (Primary HTS)]; assay type: functional
# [6] = inhibitors of SNCA 5'UTR-driven reporter translation, confirmation, H4 neuroglioma cells, luminescence (AID 1988); assay type: functional, cell-based
# Vero = assay: Vero E6 cell cytotoxicity, SAR follow-up, cytotoxicity control for West Nile virus antiviral project, synthesized analogs (AID 2244); assay type: functional; details: Chlorocebus sabaeus
# [7] = Luminescence Cell-Based Dose Retest to Confirm Inhibitors of Cancer Stem Cells. [Related pubchem assays (depositor defined):AID2717, AID2721]; assay type: functional; details: Homo sapiens
# [8] = inhibitors of firefly luciferase expression or activity, dose response, H4 neuroglioma cells, luminescence (AID 1990); assay type: functional, cell-based
# [9] = biological target: Kappa-type opioid receptor (Homo sapiens, UniProt P41145); assay: SAR analysis of small molecule agonists of the kappa opioid receptor via a luminescent beta-arrestin assay - Set 2. [Related pubchem assays (depositor defined):AID1777, AID1785, AID1786, AID1966, AID2133, AID2136, AID2284, AID449737]; assay type: functional
# [10] = control 3'UTR Renilla luciferase suppression, dose response, counter-screen for Shn3 inhibitor project, cell-based, Clone20-Shn3RL, cherry-picked (AID 624133); assay type: functional
# [11] = HepG2 cell cytotoxicity, dose response, cytotoxicity control for Shn3 inhibitor project, CellTiter-Glo, cherry-picked (AID 624134); assay type: functional, cell-based
# [12] = C. albicans growth with fluconazole, confirmation, fluorescence, retest (AID 2467); assay type: functional, cell-based
# BJ = assay: cytotoxicity toward Ras-transformed BJeLR fibroblasts, dose response, cell-based, alamar blue fluorescence, cherrypicked samples (AID 2631); assay type: functional; details: Homo sapiens;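 note: confirmatory dose-response assay in RAS-dependent BJ fibroblasts engineered with TERT, LT and ST, with cytotoxicity read by fluorescence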
# X-box-binding protein 1 = X-box-binding protein 1 (Homo sapiens, UniProt P17861); assay type: functional, Cricetulus griseus;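 note: confirmatory dose-response counter-screen serving a CHOP assay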
# [13] = NIH-3T3 fibroblast cytotoxicity, dose response, cytotoxicity control, cell-based, fluorescence, Alamar Blue, secondary assay (AID 2327); assay type: functional;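 note: NIH-3T3 mouse fibroblasts cultured with fluconazole at 8 µg/mL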
# HeLa = assay: Cytotoxicity counterscreen assay for transcriptional activators of heat shock protein 70 (Hsp70). [Related pubchem assays: 1203, 1252 ]; assay type: functional; details: Homo sapiens;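 note: cells exposed to compound for 16 hours before readout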
# [14] = Shn3 3'UTR reporter inhibitors, dose response, cell-based, Clone20 osteoblasts, firefly luciferase, cherry-picked (AID 624132); assay type: functional;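 note: firefly luciferase luminescence from reporter carrying the Shn3 3'UTR in osteoblasts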
# [15] = biological target: T2, RNA-binding protein pos-1 (Caenorhabditis elegans, UniProt G5EF15); assay: inhibitors of POS-1/mex-3 RNA binding, dose response, biochemical, fluorescence polarization (AID 1964);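 note: purified POS-1 fused to maltose binding protein made in E. coli; potency of compounds blocking POS-1 binding to fluorescent RNA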
# T2 sequence (G5EF15 whole entry): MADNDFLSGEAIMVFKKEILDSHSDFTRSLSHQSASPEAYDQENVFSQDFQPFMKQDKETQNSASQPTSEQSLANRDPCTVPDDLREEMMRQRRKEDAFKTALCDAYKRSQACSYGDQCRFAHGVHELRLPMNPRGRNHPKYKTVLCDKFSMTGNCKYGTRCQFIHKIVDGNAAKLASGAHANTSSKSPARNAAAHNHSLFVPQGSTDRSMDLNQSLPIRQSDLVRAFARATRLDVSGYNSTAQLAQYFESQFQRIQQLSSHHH
# Aminopeptidase N = biological target: T3, Aminopeptidase N (Plasmodium falciparum FcB1/Columbia, UniProt O96935); assay: P. falciparum M1AAP inhibitors, biochemical, fluorogenic H-Leu-NHMec substrate, 1536-well (AID 1445); design: species or system Plasmodium falciparum 3D7, 3D7
# T3 sequence (O96935 whole entry): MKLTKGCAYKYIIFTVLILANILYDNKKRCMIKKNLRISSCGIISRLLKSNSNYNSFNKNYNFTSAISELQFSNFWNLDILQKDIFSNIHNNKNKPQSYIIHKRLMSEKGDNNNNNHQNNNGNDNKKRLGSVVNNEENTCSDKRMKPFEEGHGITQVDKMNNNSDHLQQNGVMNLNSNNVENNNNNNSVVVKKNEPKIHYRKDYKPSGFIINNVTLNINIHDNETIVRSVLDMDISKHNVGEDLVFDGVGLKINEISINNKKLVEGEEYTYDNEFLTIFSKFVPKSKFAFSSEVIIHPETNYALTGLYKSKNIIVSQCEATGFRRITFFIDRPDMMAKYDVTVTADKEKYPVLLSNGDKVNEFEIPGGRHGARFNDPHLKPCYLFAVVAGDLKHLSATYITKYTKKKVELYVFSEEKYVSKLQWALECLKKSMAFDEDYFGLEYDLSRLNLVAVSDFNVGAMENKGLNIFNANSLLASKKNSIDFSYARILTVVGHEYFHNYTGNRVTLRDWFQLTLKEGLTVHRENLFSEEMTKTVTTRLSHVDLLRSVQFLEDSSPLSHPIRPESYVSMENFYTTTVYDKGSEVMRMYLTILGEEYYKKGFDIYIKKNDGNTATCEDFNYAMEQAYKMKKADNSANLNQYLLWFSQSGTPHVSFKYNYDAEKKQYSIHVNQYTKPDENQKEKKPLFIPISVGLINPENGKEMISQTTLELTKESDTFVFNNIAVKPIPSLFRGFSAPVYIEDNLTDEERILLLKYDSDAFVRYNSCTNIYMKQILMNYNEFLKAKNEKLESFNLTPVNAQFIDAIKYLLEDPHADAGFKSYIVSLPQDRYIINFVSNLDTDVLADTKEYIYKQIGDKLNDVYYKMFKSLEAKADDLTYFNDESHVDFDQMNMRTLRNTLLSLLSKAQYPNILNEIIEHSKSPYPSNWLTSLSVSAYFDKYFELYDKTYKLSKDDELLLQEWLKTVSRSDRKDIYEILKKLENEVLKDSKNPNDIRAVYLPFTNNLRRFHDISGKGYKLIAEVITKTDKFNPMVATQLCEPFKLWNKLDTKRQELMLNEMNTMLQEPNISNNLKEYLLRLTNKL
# ORF 73 = ORF 73 (Human herpesvirus 8, UniProt O40947); assay: inhibitors of C-LANA binding to LBS DNA, dose response, biochemical, fluorescence polarization, cherry-picked samples (AID 504725); design: species or system Human gammaherpesvirus 8;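 note: fluorescence polarization of a labeled DNA duplex reporting LANA DNA binding; potency is for inhibitors that block LANA binding to the DNA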
# [16] = biological target: T4, Zinc finger protein mex-5 (Caenorhabditis elegans, UniProt Q9XUB2); assay: MEX-5/TCR-2 RNA interaction inhibitors, dose response, biochemical, C. elegans, fluorescence polarization (AID 1960)
# T4 sequence (Q9XUB2 whole entry): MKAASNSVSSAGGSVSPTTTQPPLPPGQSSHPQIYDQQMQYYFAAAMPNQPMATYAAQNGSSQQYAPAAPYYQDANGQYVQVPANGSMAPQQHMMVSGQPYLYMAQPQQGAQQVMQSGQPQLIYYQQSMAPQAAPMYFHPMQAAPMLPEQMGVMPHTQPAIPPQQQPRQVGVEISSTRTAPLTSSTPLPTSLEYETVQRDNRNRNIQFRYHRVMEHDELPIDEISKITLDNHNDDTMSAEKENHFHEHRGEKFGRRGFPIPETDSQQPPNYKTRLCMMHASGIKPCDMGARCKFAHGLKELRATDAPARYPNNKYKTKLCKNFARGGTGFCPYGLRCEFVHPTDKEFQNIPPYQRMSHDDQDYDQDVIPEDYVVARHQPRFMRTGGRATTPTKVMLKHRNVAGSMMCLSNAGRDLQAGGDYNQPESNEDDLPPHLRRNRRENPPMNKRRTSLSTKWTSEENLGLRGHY
# T1 sequence (Q00975 whole entry): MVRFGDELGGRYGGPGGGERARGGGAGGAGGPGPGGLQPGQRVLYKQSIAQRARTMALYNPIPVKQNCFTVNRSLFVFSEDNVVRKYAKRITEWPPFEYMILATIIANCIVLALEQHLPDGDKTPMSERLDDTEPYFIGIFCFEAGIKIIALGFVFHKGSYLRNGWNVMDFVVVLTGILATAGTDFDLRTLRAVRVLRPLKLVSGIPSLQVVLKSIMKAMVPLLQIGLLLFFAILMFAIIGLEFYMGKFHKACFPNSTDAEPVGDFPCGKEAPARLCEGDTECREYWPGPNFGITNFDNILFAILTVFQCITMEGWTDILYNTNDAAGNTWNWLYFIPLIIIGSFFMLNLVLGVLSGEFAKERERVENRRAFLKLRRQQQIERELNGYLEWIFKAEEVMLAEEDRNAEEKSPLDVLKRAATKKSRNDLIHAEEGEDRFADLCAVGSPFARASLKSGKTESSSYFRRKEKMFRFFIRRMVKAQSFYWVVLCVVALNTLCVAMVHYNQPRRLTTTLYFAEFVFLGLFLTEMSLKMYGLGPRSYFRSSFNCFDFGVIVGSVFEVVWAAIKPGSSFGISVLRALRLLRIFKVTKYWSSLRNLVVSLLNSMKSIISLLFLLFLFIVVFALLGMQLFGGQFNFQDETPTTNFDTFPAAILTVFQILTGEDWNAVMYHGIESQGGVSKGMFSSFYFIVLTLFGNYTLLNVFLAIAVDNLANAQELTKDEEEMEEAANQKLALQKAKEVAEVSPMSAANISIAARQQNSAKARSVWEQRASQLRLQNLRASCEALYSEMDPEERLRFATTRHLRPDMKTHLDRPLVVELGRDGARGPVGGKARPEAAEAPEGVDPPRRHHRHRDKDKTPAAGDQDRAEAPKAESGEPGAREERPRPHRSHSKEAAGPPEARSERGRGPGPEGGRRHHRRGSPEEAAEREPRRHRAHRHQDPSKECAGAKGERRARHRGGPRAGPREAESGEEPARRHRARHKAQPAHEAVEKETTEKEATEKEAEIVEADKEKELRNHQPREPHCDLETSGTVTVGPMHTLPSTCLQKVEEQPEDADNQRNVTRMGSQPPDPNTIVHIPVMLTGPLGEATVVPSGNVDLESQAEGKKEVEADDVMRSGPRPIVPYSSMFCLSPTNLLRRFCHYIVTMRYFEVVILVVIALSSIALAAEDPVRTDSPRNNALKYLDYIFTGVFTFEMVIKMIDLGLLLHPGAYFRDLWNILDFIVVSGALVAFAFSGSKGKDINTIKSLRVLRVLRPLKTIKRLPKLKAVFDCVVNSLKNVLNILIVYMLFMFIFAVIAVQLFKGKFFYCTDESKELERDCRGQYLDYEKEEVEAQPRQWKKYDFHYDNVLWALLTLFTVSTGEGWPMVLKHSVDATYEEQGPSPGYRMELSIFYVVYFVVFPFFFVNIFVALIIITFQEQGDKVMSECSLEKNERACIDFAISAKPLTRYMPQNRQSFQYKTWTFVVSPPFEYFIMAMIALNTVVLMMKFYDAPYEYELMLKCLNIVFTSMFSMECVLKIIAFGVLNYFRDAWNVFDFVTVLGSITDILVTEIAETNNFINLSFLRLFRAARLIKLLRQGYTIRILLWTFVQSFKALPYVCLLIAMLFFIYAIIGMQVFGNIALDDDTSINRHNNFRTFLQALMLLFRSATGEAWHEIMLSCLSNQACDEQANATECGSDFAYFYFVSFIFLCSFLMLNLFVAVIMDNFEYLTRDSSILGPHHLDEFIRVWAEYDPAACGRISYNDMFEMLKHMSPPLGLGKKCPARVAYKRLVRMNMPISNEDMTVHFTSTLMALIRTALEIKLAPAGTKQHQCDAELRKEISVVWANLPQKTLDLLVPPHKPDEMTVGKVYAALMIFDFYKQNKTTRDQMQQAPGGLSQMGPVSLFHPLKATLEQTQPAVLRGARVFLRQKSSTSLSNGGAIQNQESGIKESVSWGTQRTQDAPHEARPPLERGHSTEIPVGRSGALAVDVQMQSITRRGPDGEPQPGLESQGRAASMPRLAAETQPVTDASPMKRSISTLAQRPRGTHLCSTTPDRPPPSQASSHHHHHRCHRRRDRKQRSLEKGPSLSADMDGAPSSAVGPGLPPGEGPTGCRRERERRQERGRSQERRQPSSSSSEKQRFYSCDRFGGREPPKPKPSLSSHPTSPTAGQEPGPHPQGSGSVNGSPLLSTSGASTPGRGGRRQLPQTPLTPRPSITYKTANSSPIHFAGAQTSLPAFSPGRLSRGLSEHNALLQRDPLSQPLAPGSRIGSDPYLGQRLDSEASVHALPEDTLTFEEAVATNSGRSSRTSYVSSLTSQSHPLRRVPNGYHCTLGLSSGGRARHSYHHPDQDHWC
# T1 sequence (Q02410 whole entry): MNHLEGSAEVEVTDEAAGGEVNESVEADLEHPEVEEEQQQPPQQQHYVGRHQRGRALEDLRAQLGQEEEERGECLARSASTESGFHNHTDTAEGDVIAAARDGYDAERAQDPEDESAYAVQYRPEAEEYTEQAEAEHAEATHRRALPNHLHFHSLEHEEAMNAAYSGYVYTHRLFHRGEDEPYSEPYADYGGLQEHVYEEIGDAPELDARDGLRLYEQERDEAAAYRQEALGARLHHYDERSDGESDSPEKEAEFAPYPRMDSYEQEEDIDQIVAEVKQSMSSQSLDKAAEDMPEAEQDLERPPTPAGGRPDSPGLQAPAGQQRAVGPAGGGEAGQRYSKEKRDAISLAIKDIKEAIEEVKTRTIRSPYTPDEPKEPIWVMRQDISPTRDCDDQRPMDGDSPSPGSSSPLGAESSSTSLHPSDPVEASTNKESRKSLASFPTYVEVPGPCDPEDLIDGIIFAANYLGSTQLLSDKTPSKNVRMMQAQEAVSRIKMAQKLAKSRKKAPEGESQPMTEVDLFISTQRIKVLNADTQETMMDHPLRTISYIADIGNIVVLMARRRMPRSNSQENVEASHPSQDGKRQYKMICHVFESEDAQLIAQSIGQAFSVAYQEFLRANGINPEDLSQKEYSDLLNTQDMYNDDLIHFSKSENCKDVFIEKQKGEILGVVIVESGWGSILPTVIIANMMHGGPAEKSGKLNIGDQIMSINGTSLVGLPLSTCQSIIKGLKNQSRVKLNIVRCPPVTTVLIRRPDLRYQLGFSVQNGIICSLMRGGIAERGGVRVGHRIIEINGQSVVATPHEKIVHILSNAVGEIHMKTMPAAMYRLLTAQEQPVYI
# Chain of X-box-binding protein 1 (P17861 whole entry): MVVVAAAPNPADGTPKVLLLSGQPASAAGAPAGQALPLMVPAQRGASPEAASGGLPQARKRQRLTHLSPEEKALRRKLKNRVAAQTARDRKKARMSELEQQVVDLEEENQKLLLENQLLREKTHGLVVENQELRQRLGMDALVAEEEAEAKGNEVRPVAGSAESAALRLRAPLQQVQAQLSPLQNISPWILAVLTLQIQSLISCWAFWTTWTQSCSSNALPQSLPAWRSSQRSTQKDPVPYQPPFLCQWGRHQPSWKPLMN
# Chain of Kappa-type opioid receptor (P41145 whole entry): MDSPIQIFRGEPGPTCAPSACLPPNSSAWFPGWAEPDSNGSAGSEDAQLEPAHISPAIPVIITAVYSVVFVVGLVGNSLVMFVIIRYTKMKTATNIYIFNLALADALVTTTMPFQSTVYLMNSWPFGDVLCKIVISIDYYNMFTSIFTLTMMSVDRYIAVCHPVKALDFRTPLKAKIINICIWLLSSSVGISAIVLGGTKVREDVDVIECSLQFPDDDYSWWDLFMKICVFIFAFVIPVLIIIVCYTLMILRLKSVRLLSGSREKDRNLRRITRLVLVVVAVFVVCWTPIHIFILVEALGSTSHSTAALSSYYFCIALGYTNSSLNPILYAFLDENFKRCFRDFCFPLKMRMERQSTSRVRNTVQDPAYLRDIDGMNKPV
# Chain of ORF 73 (O40947 whole entry): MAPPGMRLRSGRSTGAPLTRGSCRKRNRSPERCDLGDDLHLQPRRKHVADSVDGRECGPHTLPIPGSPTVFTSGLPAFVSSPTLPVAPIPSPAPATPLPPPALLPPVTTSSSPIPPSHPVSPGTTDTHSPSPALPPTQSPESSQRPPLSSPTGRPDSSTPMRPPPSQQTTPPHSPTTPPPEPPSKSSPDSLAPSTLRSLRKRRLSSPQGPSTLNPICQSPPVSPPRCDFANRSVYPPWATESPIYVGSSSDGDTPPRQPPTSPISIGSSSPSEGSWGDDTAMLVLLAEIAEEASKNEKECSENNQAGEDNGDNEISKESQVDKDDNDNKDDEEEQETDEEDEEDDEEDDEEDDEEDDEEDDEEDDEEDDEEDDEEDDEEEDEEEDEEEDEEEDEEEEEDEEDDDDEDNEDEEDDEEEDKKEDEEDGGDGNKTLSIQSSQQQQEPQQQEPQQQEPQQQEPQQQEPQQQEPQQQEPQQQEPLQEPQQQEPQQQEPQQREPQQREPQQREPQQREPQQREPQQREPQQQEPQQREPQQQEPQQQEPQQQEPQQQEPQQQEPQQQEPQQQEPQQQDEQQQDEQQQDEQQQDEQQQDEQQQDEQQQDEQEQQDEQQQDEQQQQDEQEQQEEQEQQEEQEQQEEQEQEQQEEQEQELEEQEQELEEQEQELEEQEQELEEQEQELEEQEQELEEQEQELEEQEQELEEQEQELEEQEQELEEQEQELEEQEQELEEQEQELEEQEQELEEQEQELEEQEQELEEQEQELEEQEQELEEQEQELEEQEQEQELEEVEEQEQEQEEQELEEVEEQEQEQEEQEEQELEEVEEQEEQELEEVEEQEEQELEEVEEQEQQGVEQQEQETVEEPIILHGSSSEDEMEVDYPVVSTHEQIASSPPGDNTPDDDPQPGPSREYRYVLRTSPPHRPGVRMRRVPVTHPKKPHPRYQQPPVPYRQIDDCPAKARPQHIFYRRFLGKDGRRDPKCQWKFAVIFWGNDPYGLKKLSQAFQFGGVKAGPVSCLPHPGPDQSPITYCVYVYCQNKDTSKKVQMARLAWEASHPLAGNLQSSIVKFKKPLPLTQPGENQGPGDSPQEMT
compound,measurement,setting,value
COc1ccc(OC)c(Nc2ccc(Nc3cc(OC)ccc3OC)nn2)c1,AC50,[1],19.8 µM (active)
CC(=O)Oc1cccc(N2C(=O)C3C(C2=O)C2(C)C=CC3(C)O2)c1 (centres undefined),IC50,[2],12 µM (active) and 18.3 µM (active)
same,IC50,[3],9.86 µM (active) and 9.63 µM (active)
Cc1nc(SCc2ccccc2)c([N+](=O)[O-])[nH]1,IC50,[4],> 150 µM (active)
O=c1oc2ccccc2nc1/C=C(\O)c1ccc(Br)cc1,AC50,Salmon testes DNA,56.9 µM (active)
same,IC50,cells,5 µM (active)
CCN(CC)CCCN=C(S)N1CCN(c2nc(-c3ccc(F)cc3)cs2)CC1,EC50,[5],> 120 µM (not active)
same,EC50,[6],> 120 µM (not active)
same,CC50,Vero,13.3 µM (active)
same,AC50,[7],1 µM (active)
same,EC50,[8],> 120 µM (not active)
O=C(CN(Cc1cccs1)C(=O)c1ccccn1)NC1CCCCC1,EC50,[9],> 20 µM (inactive)
Cc1cc(Cl)n2c(nc3ccccc32)c1C#N,AC50,[10],5.72 µM (active)
same,AC50,[11],> 70 µM (inactive)
same,EC50,[12],0.54 µM (active)
same,EC50,BJ,0.343 µM (inconclusive)
same,Absolute IC50 (XBP1),X-box-binding protein 1,10 µM
same,EC50,[13],6.06 µM (inconclusive)
same,CC50,HeLa,> 11 µM (not active)
same,AC50,[14],1.85 µM (active)
CS(=O)(=O)Nc1nc2n(n1)C(c1ccccc1)C=C(c1ccc(Br)cc1)N2 (centres undefined),EC50,[15],> 300 µM (not active)
same,IC50,Aminopeptidase N,45.3 µM (active)
same,AC50,ORF 73,8.07 µM (active)
same,EC50,[16],6.39 µM (active)
